Data: ChEMBL document CHEMBL1201862, “PubChem BioAssay data set” (2004)
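Compound exposure: 48 hours, 5 concentrations, 96-well plates. GI50: concentration for 50% inhibition of growth.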 The source made the active and inactive calls. Cut-off read from the data, not from the text of the source: active = GI50 up to about 1.1 µM and inactive = higher.

Key:
Test in all cases: NCI tumour cell line growth inhibition, 48 h
[1] = test system: A549
[2] = test system: CCRF-CEM
[3] = test system: COLO 205
[4] = test system: HOP-62
[5] = test system: KM12
[6] = test system: MOLT-4
[7] = test system: Malme-3M
[8] = test system: NCI-H226
[9] = test system: NCI-H522
[10] = test system: OVCAR-3
[11] = test system: SF-295
[12] = test system: SK-OV-3
[13] = test system: SNB-19
[14] = test system: U-251
[15] = test system: UACC-62
[16] = test system: XF498
[17] = test system: HCT-116

Measured: GI50

CCCCOC(=O)C1C(c2ccc(Cl)cc2)NC(c2ccc(Cl)cc2)C(C(=O)OCCCC)S1(=O)=O (stereo unspecified)
inactive: [1] > 100 µM | [2] > 100 µM | [3] > 100 µM | [4] > 100 µM | [5] > 100 µM | [6] > 100 µM | [7] > 100 µM | [8] > 100 µM | [9] > 100 µM | [10] > 100 µM | [11] > 100 µM | [12] > 100 µM | [13] > 100 µM | [14] > 100 µM | [15] > 100 µM | [16] > 100 µM

COc1ccc(N2C(=O)C3CC(c4ccc(C)cc4)c4c([nH]c5ccccc45)C3C2=O)cc1 (stereo unspecified)
inactive: [1] 12.2 µM | [2] 11 µM | [3] 20.7 µM | [17] 4.43 µM | [4] 18.1 µM | [5] > 41.1 µM | [6] 21 µM | [7] 15.5 µM | [8] 9.53 µM | [9] 19.5 µM | [10] 5.65 µM | [11] > 48.8 µM | [12] 29.5 µM | [13] 12.4 µM | [14] 10 µM | [15] > 100 µM | [16] 27.2 µM

NNC(=O)N/N=C1\C(=O)N(c2ccc(Cl)c(Cl)c2)C(=O)C(=O)C1c1nc2ccccc2s1 (stereo unspecified)
inactive: [1] > 100 µM | [2] 50.2 µM | [3] > 100 µM | [17] > 100 µM | [4] > 100 µM | [5] > 100 µM | [6] 69.3 µM | [7] > 100 µM | [8] > 100 µM | [9] > 100 µM | [10] > 100 µM | [11] > 100 µM | [12] > 100 µM | [13] > 100 µM | [14] > 100 µM | [15] > 100 µM | [16] > 100 µM

COc1nc2c(c(O)c(C)c(=O)n2OC2OC(COC(C)=O)C(OC(C)=O)C(OC(C)=O)C2OC(C)=O)c(=O)n1C (stereo unspecified)
inactive: [1] > 100 µM | [2] > 100 µM | [3] > 100 µM | [17] > 100 µM | [4] > 100 µM | [5] > 100 µM | [6] > 100 µM | [8] > 100 µM | [9] 44.8 µM | [11] > 100 µM | [13] > 100 µM | [14] > 100 µM | [15] > 100 µM | [16] > 100 µM

O=C(O)/C(Cl)=C(Cl)/C=N/NC(=O)c1cc2ccccc2cc1O
inactive: [1] 9.18 µM | [2] 4.86 µM | [3] 32.5 µM | [17] 13.9 µM | [4] 36.6 µM | [5] 36.8 µM | [6] 5.89 µM | [7] 37.2 µM | [8] 18.6 µM | [9] 22.1 µM | [10] 6.11 µM | [11] 11.9 µM | [12] 49.2 µM | [13] 35.2 µM | [14] 27.5 µM | [15] 3.6 µM | [16] 35.4 µM

C=CCCCN1CCCCC1=S
inactive: [1] > 100 µM | [2] > 100 µM | [3] > 100 µM | [17] > 100 µM | [4] > 100 µM | [5] > 100 µM | [6] > 100 µM | [7] > 100 µM | [8] > 100 µM | [9] > 100 µM | [10] > 100 µM | [11] > 100 µM | [12] 63.4 µM | [13] > 100 µM | [14] > 100 µM | [15] > 100 µM | [16] > 100 µM

Cc1ccc(S(=O)(=O)C(CC(NC=O)S(=O)(=O)c2ccc(C)cc2)NC=O)cc1 (stereo unspecified)
inactive: [1] > 100 µM | [2] 62.4 µM | [3] > 100 µM | [17] > 100 µM | [4] > 100 µM | [5] > 100 µM | [6] > 100 µM | [7] > 100 µM | [8] > 100 µM | [9] > 100 µM | [10] > 100 µM | [11] > 100 µM | [12] > 100 µM | [13] > 100 µM | [14] > 100 µM | [15] > 100 µM | [16] > 100 µM

Cc1ccc(-c2cc(=O)c3cc(C)c(C)c(C(=O)O)c3o2)cc1
inactive: [1] > 100 µM | [2] > 100 µM | [3] > 100 µM | [17] > 100 µM | [4] > 100 µM | [5] > 100 µM | [6] > 100 µM | [7] > 100 µM | [9] 24.3 µM | [10] > 100 µM | [11] > 100 µM | [12] > 100 µM | [13] > 100 µM | [14] > 100 µM | [15] > 100 µM | [16] > 100 µM
